The source of these data is US20220356525A1, “METHODS OF DETERMINING WHETHER PATIENTS SUFFERING FROM ACUTE MYELOID LEUKEMIA WILL ACHIEVE A RESPONSE TO AN MYC-TARGETING THERAPY” (INSERM (INSTITUT NATIONAL DE LA SANTÉ ET DE LA RECHERCHE …, priority 2019, published 2022).

Test [1] concerns AML cell lines (KG1a, IMS-M2, and U937). The test can be described thus: AML cell line sensitivity to BET/CDK7 inhibitors in standard versus nutrient-deprived (folic acid-starved) media. It is filed as cell-based, human. An excerpt:
BET proteins interact with acetylated histones in active regulatory domains (promoters and enhancers) and promote RNA PolII activity. Despite the general nature of this mechanism, BET inhibitors have shown selective effects on gene expression through suppression of […] and MYC-related transcriptional programs (8, 11, 12). Two cohorts of AML patients (TCGA-LAML, n=198 and GSE14468, n=526) were queried with multiple gene sets related to MYC transcriptional programs as well as vitamin, amino acid, and nucleotide metabolism using single sample Gene Set Enrichment Analysis (ssGSEA). Correlation between gene sets was queried across all patients from each cohort to pinpoint potential crosstalk between active MYC programs and specific metabolic pathways (data not shown).
(§1) To investigate further the relationship between folic acid starvation and increased BET inhibitor resistance, we compiled a panel of AML cell lines harboring diverse genetic alterations. […] The effect of folic acid removal was also evaluated in cell lines treated either with a second BET inhibitor, JQ1, or with THZ-1, a covalent inhibitor of CDK7, another key factor in transcriptional elongation at super-enhancer regions and a strong inhibitor of MYC expression (data not shown). […] Therefore, we studied selective suppression of BRD4 by short hairpin RNA (shRNA) in two AML cell lines.

A further test deals with U937 cell colonies. Put plainly: Colony formation assay with OTX015 at reduced folic acid. It is filed as cell-based, human. The conditions noted are these: 125-fold decrease in folic acid (1 mg/L to 0.008 mg/L). How it is done: as §1
The next test concerns AML cells. Put plainly: Apoptosis in response to OTX015 upon folic acid withdrawal. Type of test: cell-based, human. How it is done:
as §1

Test [2] has as its system MLL-translocated primary patient samples with AML. Put plainly: OTX015 sensitivity of primary AML patient samples. It is filed as cell-based, human. How it is done: (§2) Error bars represent mean±SD.
as §1
Previous studies have extensively characterized two common MTHFR genetic variants, C677T and A1298C, encoding MTHFR enzyme variants with reduced activity, resulting in hyperhomocysteinemia in human carriers. In particular, the homozygous variant 677 TT and 1298 CC genotypes are present in ˜10% of Caucasians and display only 30% and 60% of the homozygous wild-type 677 CC and 1298 AA enzyme activities, respectively (16, 17). […] Five KG1a clones either 1) wild-type 677 CC and 1298 AA, 2) heterozygous 677 CT or 1298 AC, or 3) homozygous 677 TT or 1298 CC, were selected and genotyped via allelic discrimination technique (FIG. 1A). […] Finally, we engineered a tractable MLL-AF9-driven mouse model of AML in which Mtfhr genotype status was either homozygous wild-type, heterozygous or homozygous knockout.

The next test deals with IMS-M2 AML cells. Put plainly: OTX015 sensitivity after shRNA knockdown of folate cycle enzymes. It is filed as cell-based, human. Conditions: for increase of IC50 of OTX015: average.
Test [3] deals with AML cell lines: KG1a, OCI-AML2, and U937. Put plainly: OTX015 response and colony number after MTHFR-directed shRNAs in AML cell lines. Type of test: cell-based, human. An excerpt: Dietary folic acid undergoes several conversion steps into intermediate metabolites before generation of 5,10-methylene-THF (5,10-CH2 THF). 5,10-CH2 THF is then either reduced in the folate cycle or oxidized in the formate-producing tetrahydrofolate salvage cycle, depending on cellular needs. Despite the fact that folic acid can ultimately be processed through these two interconnected pathways, we observed in our previous ssGSEA analyses that active MYC gene signatures were highly correlated with activation of tetrahydrofolate salvage cycle, but not with folate cycle-related gene sets (data not shown). […] Five central enzymes control the multi-step conversion of dietary folate into 5,10-methylene-THF (5,10-CH2 THF) before its reduction to 5-methyl-THF (5-CH3 THF) and recycling to THF. […] Finally, we abrogated Mthfr expression in primary murine MLL-AF9-driven AML cells using two Mthfr-directed shRNAs before treatment of engrafted mice with JQ1 (data not shown).

For test [4], the system named is CRISPR/Cas9-edited KG1a clones. The test can be described thus: OTX015 sensitivity and colony formation of CRISPR/Cas9-edited KG1a clones with MTHFR variants. It is filed as cell-based, human. Conditions: 677 TT and 1298 CC homozygous versus wild-type clones; 1 μM OTX015.
Excerpt: Error bars represent mean±SD. Experiment performed at least two independent times.
as §2
Additional information is provided in the supplementary material and methods section.
Finally, we engineered a tractable MLL-AF9-driven mouse model of AML in which Mtfhr genotype status was either homozygous wild-type, heterozygous or homozygous knockout.

The next test has as its system U937 cells. Put plainly: OTX015 sensitivity after EED, EHMT1, SETDB1 hairpins. The conditions noted are these: hairpins reducing EED, EHMT1 and SETB1 protein. Type of test: cell-based, human.
In test [5] the test system is MYC transcriptional program. Put plainly: RNA sequencing and gene set enrichment after OTX015 for 24 hours. Type of test: cell-based, human. The conditions noted are these: IMS-M2 and U937; irrespective of folate status; FDR<0.25.
In another test the test system is IMS-M2 and U937 cells. The test can be described thus: OTX015 resistance after SPI1 knockdown with folate withdrawal or MTHFR suppression. Type of test: cell-based, human. Conditions: SPI1 depletion; folate cycle disturbed or MTHFR suppressed. An excerpt:
To explore functionally whether SPI1 transcriptional program activation induced by folate cycle disruption promotes resistance to BRD4 inhibition, we knocked down SPI1 in IMS-M2 and U937 cells before folate withdrawal or MTHFR suppression (FIGS. 5F and 5G).

For test [6], the system named is MLL-AF9-transformed Mthfr knockout primary murine cells. The test can be described thus: OTX015 resistance after Spi1 knockdown in Mthfr knockout cells. It is filed as cell-based.
[7] abbreviates: folic acid-starved media versus standard media, panel of AML cell lines.

`Cc1sc2c(c1C)C(c1ccc(Cl)cc1)=N[C@@H](CC(=O)Nc1ccc(O)cc1)c1nnc(C)n1-2` [OTX015]: the “resistance to OTX015” value in test [1] (folic acid starvation, KG1a, IMS-M2, U937) was “consistently enhanced resistance”; in test [1] (phenylalanine and histidine starvation), “increased resistance to OTX015 in a subset of AML cell lines”; in test [6], “abrogated resistance to OTX015”. Besides, the “area under curve (AUC)” value in test [1] (setting [7]) is listed as “significantly increased”. The “half-maximal inhibitory concentration (IC50)” value in [1] (setting [7]) is recorded as “significantly increased”. The “number of colonies in presence of OTX015” value with U937 cell colonies is “significantly increased the number of U937 cell colonies”. In addition, in the test with AML cells, the “apoptosis in response to OTX015” value is recorded as “decrease in apoptosis”. The “response to OTX015 (IC90, 5 days)” value in [2] (16 samples, homozygous and compound heterozygous MTHFR genotype versus wild-type and heterozygous) is reported as “responded significantly less”. The IC50 entry in test [2] (folic acid withdrawal) is “markedly increased”. The “increase of IC50 of OTX015” value with IMS-M2 AML cells (hairpins targeting DHFR and DHFR2) was found to be 3 fold; in the test with IMS-M2 AML cells (hairpins targeting MTHFR), 7 fold. Besides, the “response to OTX015” value in the test with IMS-M2 AML cells (hairpins targeting SHMT1 and MTR) is “did not significantly alter response”. In test [3] (MTHFR suppression), the “response to increasing doses of OTX015” value is recorded as “substantially weakened the response”. The “colony number upon OTX015 treatment” value in [3] (MTHFR-depleted versus shCT-infected cells) is reported as “significant increase in colony number”. Further, the “number of colonies upon OTX015 treatment” value in test [4] is on record as “substantially higher”. Besides, the OTX015 sensitivity entry in the test with U937 cells is reported as “markedly alleviated OTX015 sensitivity”. Besides, the “enrichment of MYC gene sets in genes suppressed by OTX015” value in test [5] is recorded as “highly enriched”. Further, the OTX015 resistance entry with IMS-M2 and U937 cells is “significantly reduced OTX015 resistance”.
